Data: patent US20230131720A1, “[1,3]DIAZINO[5,4-d]PYRIMIDINES AS HER2 INHIBITORS” (Boehringer Ingelheim International GmbH, priority 2020, published 2023)
Like-named read-outs stand apart in the source and are kept apart here.

How the values were obtained:
Type in all cases: cell-based
Ba/F3 cells HER2 WT = assay: Ba/F3 proliferation assay, HER2 WT; conditions: Mus musculus, BaF3, 72 h, CellTiter-Glo
Method: (§1) Plasmids containing HER2 mutants and EGFR WT were obtained from GeneScript. To generate EGFR/HER2-dependent Ba/F3 models, Ba/F3 cells were transduced with retroviruses containing vectors that harbor EGFR WT, HER2 WT or HER2 mutants (YVMA). Platinum-E cells (Cell Biolabs) were used for retrovirus packaging. Retrovirus was added to Ba/F3 cells. To ensure infection, 4 μg/mL polybrene was added and cells were spinfected. Infection efficiency was confirmed by measuring GFP-positive cells using a cell analyzer. Cells with an infection efficiency of 10% to 20% were further cultivated and puromycin selection with 1 μg/mL was initiated. As a control, parental Ba/F3 cells were used to assess the selection status. Selection was considered successful when parental Ba/F3 cells cultures died. To evaluate the transforming potential of HER2 mutations, the growth medium was no longer supplemented with IL-3. Ba/F3 cells harboring the empty vector were used as a control. A switch from IL-3 to EGF was performed for Ba/F3 cells with the EGFR WT known for its dependency on EGF ligand. Approximately ten days before conducting the experiments, puromycin was left out. For proliferation assays (data in table 12 and 14), Ba/F3 cells were seeded into 96-well plates at 5×10^3 cells/100 μL in growth media. Compounds were added by using a HP D3000 Digital Dispenser. All treatments were performed in technical triplicates. Treated cells were incubated for 72 h at 37° C. with 5% CO2. CellTiter-Glo® Luminescent Cell Viability Assay (Promega) was performed and chemoluminescence was measured by using the multilabel Plate Reader VICTOR X4. The raw data were imported into and analyzed with the Boehringer Ingelheim proprietary software MegaLab (curve fitting based on the program PRISM, GraphPad Inc.).

[1] = tested on: Ba/F3 cells HER2 mutants (YVMA); assay: Ba/F3 proliferation assay, HER2 YVMA; conditions: Mus musculus, BaF3, 72 h, CellTiter-Glo
Method: as §1

HER2 YVMA = target: T1, HER2 YVMA (Homo sapiens, UniProt P04626, INS775YVMA); assay: pHER2 (ERBB2) YVMA assay (AlphaScreen Surefire, HEK cells); conditions: HEK cells expressing HER2 YVMA
T1 construct: expressed in transfected cells; host or cells: human HEK cells, retroviral transduction, doxycycline-inducible expression
Method: (§2) For the assay, HEK HER2 YVMA cells were seeded in MEM medium with 10% FBS. 4 hours prior to compound addition, HER2 YVMA expression was induced using 1 μg/ml Doxycycline. […] Subsequently, 60.000 cells/well in 60 μL were added. Cells were incubated with compounds for 4 h at 37° C. […] The mixture was incubated at a temperature of 20-25° C. with shaking (700 rpm) for 20 min. After centrifugation, 4 μL of the lysate were transferred to Proxiplates. […] Plates were shaken for 1 min (1400 rpm) and incubated for 2 h at a temperature of 20-25° C. in the dark.
The results of the assay are provided as IC50 values.

Ba/F3 cells EGFR WT = assay: Ba/F3 proliferation assay, EGFR WT (EGF dependent); conditions: Mus musculus, CellTiter-Glo, read-out: GI50 BAF3 EGF dep.
Method: as §1

[2] = tested on: NCI-H2170 HER2 YVMA cells; assay: Tumor cell line proliferation assay, NCI-H2170 HER2 YVMA; conditions: Homo sapiens, 72 h, CellTiter-Glo, read-out: GI50 NCI H-2170 HER2 YVMA
Source text: Homology-directed genome engineering was employed to insert a 12 nucleotide sequence encoding YVMA into Exon 20 of the genomic HER2 locus in NCI-H2170 cells. […] The DNA template containing the HER2 exon 20 YVMA insertion variant was obtained from GenScript. PCR followed by Sanger sequencing was used to confirm the presence of the 12-nucleotide insertion in HER2 Exon 20 resulting in the YVMA amino acid duplication.
(§3) For proliferation assays, NCI-H2170 (HER2 wild type), NCI-H2170 HER2 YVMA and EGFR WT dependent A431 cells were used. NCI-H2170 HER2 YVMA or NCI-H2170 cells were seeded into 96-well plates at 750 cells/60 μL in growth media (RPMI ATCC+10% FBS, +Penicillin/Streptomycin). […] Compounds were added by using a HP D3000 Digital Dispenser one day after plating the cells. All treatments were performed in technical triplicates. Treated cells were incubated for 72 h at 37° C. with 5% CO2. CellTiter-Glo® Luminescent Cell Viability Assay (Promega) was performed and chemoluminescence was measured by using the multilabel Plate Reader VICTOR X4. The raw data were imported into and analyzed with the Boehringer Ingelheim proprietary software MegaLab (curve fitting based on the program PRISM, GraphPad Inc.).

[3] = tested on: EGFR WT dependent A431 cells; assay: Tumor cell line proliferation assay, A431; conditions: Homo sapiens, A-431, 72 h, CellTiter-Glo, read-out: GI50 A431 EGFR wt amp.
Method: as §3

EGFR wild type (WT) = target: T2, EGFR wild type (WT) (Homo sapiens, UniProt P00533); assay: pEGFR assay (AlphaScreen Surefire, HEK cells); conditions: HEK cells expressing EGFR WT
T2 construct: expressed in transfected cells; host or cells: human HEK cells (ATCC CRL-1573), retroviral transduction
Method: This assay quantifies the phosphorylation of EGFR at Tyr1068 and was used to measure the inhibitory effect of compounds on the transgenic EGFR wild type (WT) protein expressed in HEK cells.
as §2, with “Transduced cells were selected using puromycin. p-EGFR Tyr1068 was determined using the AlphaScreen Surefire pEGF Receptor (Tyr1068) Assay (PerkinElmer, TGRERS). For” for “For”, “EGFR WT” for “HER2 YVMA”, “FBS.” for “FBS. 4 hours prior to compound addition, HER2 YVMA expression was induced using 1 μg/ml Doxycycline.”, “C.—with” for “C. with”
This cellular phospho-EGFR (pEGFR) compound dose-response assay quantifies the phosphorylation of EGFR at Tyr1068 in HEK cells expressing EGFR WT. The results of the assay are provided as IC50 values.

[4] = tested on: NCI-H2170 (HER2 wild type) cells; assay: Tumor cell line proliferation assay, NCI-H2170 (HER2 wild type); conditions: Homo sapiens, 72 h, CellTiter-Glo, read-out: GI50 NCI H-2170 HER2 wt amp.
Method: as §3

[5] = BaF3, prior art compounds (Table 14), EGF, 72 h
[6] = phosphorylation at Tyr1221/1222, 4 h
[7] = BaF3, EGF instead of IL-3, 72 h
[8] = phosphorylation at Tyr1068, 4 h

T1 sequence (P04626 with tags, fused parts or gaps INS775YVMA): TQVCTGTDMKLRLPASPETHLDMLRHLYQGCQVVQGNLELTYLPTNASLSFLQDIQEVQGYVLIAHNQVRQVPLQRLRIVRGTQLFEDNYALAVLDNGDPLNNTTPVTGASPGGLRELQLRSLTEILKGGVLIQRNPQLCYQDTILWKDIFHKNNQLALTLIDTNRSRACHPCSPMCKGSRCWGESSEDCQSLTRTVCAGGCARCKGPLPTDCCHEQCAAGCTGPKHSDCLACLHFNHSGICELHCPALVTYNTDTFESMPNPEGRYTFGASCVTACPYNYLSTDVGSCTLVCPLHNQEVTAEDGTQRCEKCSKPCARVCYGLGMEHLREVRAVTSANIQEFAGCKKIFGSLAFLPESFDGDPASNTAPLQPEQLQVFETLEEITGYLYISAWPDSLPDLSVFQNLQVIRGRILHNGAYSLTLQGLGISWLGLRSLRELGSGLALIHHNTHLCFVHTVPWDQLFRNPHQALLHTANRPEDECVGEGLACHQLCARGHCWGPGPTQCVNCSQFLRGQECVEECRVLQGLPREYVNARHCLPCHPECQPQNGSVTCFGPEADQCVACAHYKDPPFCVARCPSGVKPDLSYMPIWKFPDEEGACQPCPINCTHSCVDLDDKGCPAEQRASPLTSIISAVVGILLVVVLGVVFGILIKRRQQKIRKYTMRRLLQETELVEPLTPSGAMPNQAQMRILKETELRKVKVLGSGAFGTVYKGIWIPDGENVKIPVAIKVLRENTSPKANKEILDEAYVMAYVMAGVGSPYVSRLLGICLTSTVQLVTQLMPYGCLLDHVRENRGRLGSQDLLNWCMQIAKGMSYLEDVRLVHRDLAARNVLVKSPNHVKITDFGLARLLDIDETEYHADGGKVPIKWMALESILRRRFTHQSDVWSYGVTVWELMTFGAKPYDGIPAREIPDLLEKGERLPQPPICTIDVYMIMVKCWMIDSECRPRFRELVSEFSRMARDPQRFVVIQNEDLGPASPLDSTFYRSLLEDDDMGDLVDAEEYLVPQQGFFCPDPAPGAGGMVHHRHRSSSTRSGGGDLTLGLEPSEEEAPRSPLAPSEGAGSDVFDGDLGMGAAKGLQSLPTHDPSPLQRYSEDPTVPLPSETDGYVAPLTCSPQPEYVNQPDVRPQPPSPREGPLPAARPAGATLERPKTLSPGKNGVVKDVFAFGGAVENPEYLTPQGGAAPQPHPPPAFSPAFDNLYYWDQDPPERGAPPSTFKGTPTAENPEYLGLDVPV
T2 sequence (P00533 25-1210): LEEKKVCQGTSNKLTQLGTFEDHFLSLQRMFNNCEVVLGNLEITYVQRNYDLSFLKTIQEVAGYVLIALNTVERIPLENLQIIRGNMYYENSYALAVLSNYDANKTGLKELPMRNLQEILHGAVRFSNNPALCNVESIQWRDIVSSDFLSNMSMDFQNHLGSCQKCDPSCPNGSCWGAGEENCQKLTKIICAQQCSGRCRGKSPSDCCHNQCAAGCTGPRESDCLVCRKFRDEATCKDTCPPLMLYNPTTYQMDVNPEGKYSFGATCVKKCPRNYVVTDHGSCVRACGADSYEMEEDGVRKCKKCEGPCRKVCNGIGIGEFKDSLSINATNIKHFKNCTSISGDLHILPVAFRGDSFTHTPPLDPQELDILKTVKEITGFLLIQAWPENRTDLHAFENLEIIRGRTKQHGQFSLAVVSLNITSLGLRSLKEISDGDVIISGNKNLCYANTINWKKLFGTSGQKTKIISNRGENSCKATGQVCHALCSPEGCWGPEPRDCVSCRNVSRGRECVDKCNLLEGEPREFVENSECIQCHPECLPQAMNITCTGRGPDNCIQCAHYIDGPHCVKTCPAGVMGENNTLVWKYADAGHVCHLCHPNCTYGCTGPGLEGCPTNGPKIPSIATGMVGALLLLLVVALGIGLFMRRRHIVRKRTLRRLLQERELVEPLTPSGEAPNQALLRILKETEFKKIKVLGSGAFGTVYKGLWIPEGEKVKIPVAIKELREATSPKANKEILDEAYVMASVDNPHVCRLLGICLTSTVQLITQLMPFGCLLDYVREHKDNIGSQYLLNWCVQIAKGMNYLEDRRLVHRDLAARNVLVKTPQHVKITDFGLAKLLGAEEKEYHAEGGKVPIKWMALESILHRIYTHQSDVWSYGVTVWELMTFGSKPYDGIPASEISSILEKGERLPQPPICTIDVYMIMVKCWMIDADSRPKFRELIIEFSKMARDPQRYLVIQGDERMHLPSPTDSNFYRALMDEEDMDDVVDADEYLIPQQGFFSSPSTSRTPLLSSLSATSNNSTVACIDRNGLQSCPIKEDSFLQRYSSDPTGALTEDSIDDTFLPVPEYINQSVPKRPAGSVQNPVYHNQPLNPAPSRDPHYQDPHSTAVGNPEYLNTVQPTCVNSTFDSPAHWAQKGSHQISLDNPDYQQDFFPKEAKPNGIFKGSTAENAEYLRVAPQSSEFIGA

GI50 (Ba/F3 cells HER2 WT; prior art compounds (Table 14)) [nM]	GI50 ([1]; prior art compounds (Table 14)) [nM]	IC50 (HER2 YVMA; prior art compounds (Table 13), Tyr1221/1222, 4 h) [nM]	GI50 (Ba/F3 cells EGFR WT; [5]) [nM]	GI50 ([3]; prior art compounds (Table 14)) [nM]	IC50 (EGFR wild type (WT); prior art compounds (Table 13), Tyr1068, 4 h) [nM]	GI50 [1] [nM]	IC50 (HER2 YVMA; [6]) [nM]	GI50 (Ba/F3 cells EGFR WT; [7]) [nM]	GI50 [3] [nM]	IC50 (EGFR wild type (WT); [8]) [nM]	GI50 (Ba/F3 cells HER2 WT) [nM]	SMILES	GI50 ([2]; prior art compounds (Table 14)) [nM]	GI50 ([4]; prior art compounds (Table 14)) [nM]	GI50 [2] [nM]	GI50 [4] [nM]
40	334	81	3560	> 5000	355	–	–	–	–	–	–	C=CC(=O)Nc1ccc2ncnc(Nc3ccc(Oc4ccn5ncnc5c4)c(C)c3)c2c1 [WO 2007/059257 Ex. 169, reference compound]	1430	426	–	–
–	–	–	–	–	–	15	6	2650	2640	252	–	C=CC(=O)N1CCN(c2ncc3ncnc(Nc4ccc(Oc5ccn6ncnc6c5)c(C)c4)c3n2)C[C@H]1C [Example I-6]	–	–	52	9
–	–	–	–	–	–	60	7	> 5000	3640	840	4	C=CC(=O)N1CCN(c2ncc3ncnc(Nc4ccc(Oc5ccn6ncnc6c5)c(C)c4)c3n2)C[C@@H]1C [Example I-5]	–	–	108	12
–	–	–	–	–	–	22	6	> 5000	3790	577	3	C=CC(=O)N1CCN(c2ncc3ncnc(Nc4ccc(Oc5ccn6ncnc6c5)c(C)c4)c3n2)[C@@H](C)C1 [Example I-8]	–	–	91	14
–	–	–	–	–	–	6	2	670	1570	62	1	C=CC(=O)N1CCN(c2ncc3ncnc(Nc4ccc(Oc5ccn6ncnc6c5)c(Cl)c4)c3n2)CC1 [Example I-2]	–	–	40	6
–	–	–	–	–	–	29	7	> 5000	3990	1200	4	C=CC(=O)N1CCN(c2ncc3ncnc(Nc4ccc(Oc5ccn6ncnc6c5)c(C)c4)c3n2)[C@H](C)C1 [Example I-7]	–	–	125	13
–	–	–	–	–	–	11	10	2220	3830	371	2	C=CC(=O)N1CCN(c2ncc3ncnc(Nc4cc(Cl)c(Oc5ccn6ncnc6c5)c(Cl)c4)c3n2)CC1 [Example I-3]	–	–	70	12
–	–	–	–	–	–	20	18	1010	> 5000	524	2	C=CC(=O)N1CCN(c2ncc3ncnc(Nc4cc(F)c(Oc5ccn6ncnc6c5)c(Cl)c4)c3n2)CC1 [Example I-4]	–	–	85	12
–	5	–	14	55	–	–	–	–	–	–	–	CCOc1cc2ncc(C#N)c(Nc3ccc(OCc4ccccn4)c(Cl)c3)c2cc1NC(=O)/C=C/CN(C)C [neratinib, reference compound]	37	3	–	–
–	–	–	–	–	–	9	3	1370	2180	153	1	C=CC(=O)N1CCN(c2ncc3ncnc(Nc4ccc(Oc5ccn6ncnc6c5)c(C)c4)c3n2)CC1 [Example I-1]	–	–	36	6
